The molecules below were run on Pseudomonas aeruginosa PAO1 (assay: MBEC assay, biofilm formation of P. aeruginosa PAO1). Settings: compound concentration 100 μM, class symbols.
Type: cell-based
Method: The compound to be tested was dissolved in DMSO to obtain a concentration that was 100 times that of the final concentration required (1 mM for the 10 μM assay and 10 mM for the 100 μM assay). 1.5 μL of the above solution was placed into each well of a 96 well plate (final volume in each well=150 μL, final DMSO concentration of 1% (v/v)).
To grow the organism and form a biofilm, a cryogenic stock of the test organism (at −70° C.) was used. A first sub-culture was streaked out onto TSA (tryptic soy agar), upon which the plate was incubated at 35±2° C. for 24 hours and stored wrapped in parafilm at 4° C. afterwards. From this first sub-culture, a second sub-culture was streaked out onto TSA. The plate was incubated at 35±2° C. for 24 hours. The second sub-culture was used within 24 hours starting from the time it was first removed from incubation. Using the second sub-culture an inoculum in 3 mL sterile water that matches a 0.5 McFarland Standard (1.5×10^8 cells per mL) was created in a glass test tube using a sterile cotton swab. 2.2 mL of this solution was diluted in 22 mL 100% TSB (tryptic soy broth) medium to a cell density of approximately […]. The diluted organism was inverted 3-5 times to achieve uniform mixing of the organism. One sample (100 μl) of the diluted organism was used for an inoculum check by serially diluting and spot plating on TSA.
To prepare a challenge plate, […] of the diluted organism was added to each well of a 96 well plate except the sterility control wells. The test compounds were added to the wells to make up final concentrations of 10 μM and […] (1.5 μL/well) in the designated location in the test plate. 128.5 μL of 100% universal neutralizer (1% Tween 80 in Cation Adjusted Mueller Hinton Broth, CAMHB) was placed in each of the wells. 130 μL of media was added to the growth control wells. 128.5 μL of media+1.5 μL of DMSO were added to a second set of growth control wells. 150 μL of media was added to the sterility controls. Each sample was run in triplicate. The plate was covered by a lid with a peg per well and wrapped in parafilm and placed on a shaker in a humidified incubator (GeneVac) at 35±+2° C. for 24 hours set at 110 rpm.
Rinse plate(s) of 0.9% saline (200 μL per well) were prepared in a sterile 96 well microtitre plate. Lid-associated pegs were rinsed in 0.9% saline for approximately 1-2 minutes. The peg lid was transferred to the recovery media (1.0% Tween 80 in CAMHB) then sonicated for 30 minutes to dislodge surviving biofilm. Following sonication, 100 μL from each well of the 96 well plate was placed into the first 12 wells of the first row of a 96 well microtiter plate. 180 μl of 0.9% sterile saline was placed in the remaining rows. A serial dilution (10^0-10^7) was prepared by moving 20 μl down each of the 8 rows. 20 μl from each well was removed and spot plated on a prepared TSA. In the remaining recovery plate, 100 μl of fresh growth media (1.0% Tween 80 in CAMHB) was placed in each well to replace the amount removed. The recovery plate was covered with a regular lid and incubated at 35±2° C. for 24 hours and read visually to confirm antimicrobial activity of the test compounds.
The compounds of the present disclosure have been tested regarding their efficiency to inhibit biofilm formation of Staphylococcus aureus U of C#18 (MRSA), Staphylococcus aureus 456 (MRSA), Staphylococcus epidermidis RP62A, and Pseudomonas aeruginosa PAO1.

SMILES	inhibition at 100 µM
CCCCCCCCCCNC(=O)Nc1ccnn1CC [Example 64, 1-decyl-3-(1-ethylpyrazol-5-yl)urea]	20 to 50%
CCCCCCCCCCNC(=O)Nc1cc(C2CC2)n[nH]1 [Example 65, 1-(3-cyclopropylpyrazol-5-yl)-3-decylurea]	> 50%
CCCCCCCCCCNC(=O)Nc1cc(C2CC2)nn1C [Example 66, 1-(3-cyclopropyl-1-methylpyrazol-5-yl)-3-decylurea]	> 50%
CCCCCCCCCCNC(=O)Nc1cc(C2CC2)nn1C(C)=O [Example 67, 1-(1-acetyl-3-cyclopropylpyrazol-5-yl)-3-decylurea]	> 50%
CCCCCCCCCCNC(=O)Nc1cc(C(C)(C)C)n[nH]1 [Example 68, 1-(3-tert-butylpyrazol-5-yl)-3-decylurea]	20 to 50%
CCCCCCCCCCNC(=O)N(C)c1cc(C(C)(C)C)nn1C [Example 69, 1-(3-tert-butyl-1-methylpyrazol-5-yl)-3-decyl-1-methylurea]	> 50%
CCCCCCCCCCNC(=O)Nc1cc(C)nn1C(C)(C)C [Example 70, 1-(1-tert-butyl-3-methylpyrazol-5-yl)-3-decylurea]	> 50%
CCCCCCCCCCNC(=O)Nc1cc(-c2ccccc2)nn1C [Example 71, 1-decyl-3-(1-methyl-3-phenylpyrazol-5-yl)urea]	< 20%
CCCCCCCCCCNC(=O)N(C)c1cc(-c2ccccc2)nn1C [Example 72, 3-decyl-1-methyl-1-(1-methyl-3-phenylpyrazol-5-yl)urea]	20 to 50%
CCCCCCCCCCNC(=O)/N=c1/cc(-c2ccccc2)n(C)n1C [Example 73, 1-decyl-3-(1,2-dimethyl-5-phenylpyrazol-3-ylidene)urea]	> 50%
CCCCCCCCCCNC(=O)Nc1cc(C)nn1-c1ccccc1 [Example 74, 1-decyl-3-(3-methyl-1-phenylpyrazol-5-yl)urea]	< 20%
CCCCCCCCCCNC(=O)Nc1nnc(C2CC2)s1 [Example 75, 1-(5-cyclopropyl-1,3,4-thiadiazol-2-yl)-3-decylurea]	20 to 50%
CCCCCCCCCCNC(=O)Nc1nnc(C(C)(C)C)s1 [Example 76, 1-(5-tert-butyl-1,3,4-thiadiazol-2-yl)-3-decylurea]	> 50%
CCCCCCCCCCNC(=O)Nc1nnc(-c2ccccc2)s1 [Example 77, 1-decyl-3-(5-phenyl-1,3,4-thiadiazol-2-yl)urea]	< 20%
CCCCCCCCCCNC(=O)Nc1nc(C(C)(C)C)cs1 [Example 78, 1-(4-tert-butylthiazol-2-yl)-3-decylurea]	20 to 50%
CCCCCCCCCCNC(=O)Nc1nc(-c2ccccc2)cs1 [Example 79, 1-decyl-3-(4-phenylthiazol-2-yl)urea]	20 to 50%
CCCCCCCCCCCNC(=O)Nc1cc(C2CC2)nn1C [Example 80, 1-(3-cyclopropyl-1-methylpyrazol-5-yl)-3-undecylurea]	20 to 50%
CCCCCCCCCCCNC(=O)Nc1cc(C(C)(C)C)nn1C [Example 81, 1-(3-tert-butyl-1-methylpyrazol-5-yl)-3-undecylurea]	> 50%
CCCCCCCCCCCNC(=O)Nc1cc(-c2ccccc2)nn1C [Example 82, 1-(1-methyl-3-phenylpyrazol-5-yl)-3-undecylurea]	< 20%
CCCCCCCCCCCCNC(=O)Nc1cc(C)nn1C [Example 83, 1-(1,3-dimethylpyrazol-5-yl)-3-dodecylurea]	20 to 50%
CCCCCCCCCCCCNC(=O)Nc1cc(C2CC2)nn1C [Example 84, 1-(3-cyclopropyl-1-methylpyrazol-5-yl)-3-dodecylurea]	< 20%
CCCCCCCCCCCCNC(=O)Nc1cc(C(C)(C)C)nn1C [Example 85, 1-(3-tert-butyl-1-methylpyrazol-5-yl)-3-dodecylurea]	> 50%

SMILES	inhibition at 100 µM
CCCCCCCCCCCCNC(=O)Nc1cc(-c2ccccc2)nn1C [Example 86, 1-dodecyl-3-(1-methyl-3-phenylpyrazol-5-yl)urea]	< 20%
CCCCCCCCCCCCCCNC(=O)Nc1cc(C)nn1C [Example 87, 1-(1,3-dimethylpyrazol-5-yl)-3-tetradecylurea]	< 20%
CCCCCCCCCCCCCCNC(=O)Nc1cc(C(C)(C)C)nn1C [Example 88, 1-(3-tert-butyl-1-methylpyrazol-5-yl)-3-tetradecylurea]	> 50%
CCCCCCCCCCCCCCCCNC(=O)Nc1cc(C)nn1C [Example 89, 1-(1,3-dimethylpyrazol-5-yl)-3-hexadecylurea]	< 20%
CCCCCCCCCCCCCCCCNC(=O)Nc1cc(C2CC2)nn1C [Example 90, 1-(3-cyclopropyl-1-methylpyrazol-5-yl)-3-hexadecylurea]	< 20%
CCCCCCCCCCCCCCCCNC(=O)Nc1cc(C(C)(C)C)nn1C [Example 91, 1-(3-tert-butyl-1-methylpyrazol-5-yl)-3-hexadecylurea]	20 to 50%
CCCCCCCCCCCCCCCCCCNC(=O)Nc1cc(C)nn1C [Example 92, 1-(1,3-dimethylpyrazol-5-yl)-3-octadecylurea]	< 20%
CCCCCCCCCCCCCCCCCCNC(=O)Nc1cc(C2CC2)nn1C [Example 93, 1-(3-cyclopropyl-1-methyrpyrazol-5-yl)-3-octadecylurea]	< 20%
CCCCCCCCCCCCCCCCCCNC(=O)Nc1cc(C(C)(C)C)nn1C [Example 94, 1-(3-tert-butyl-1-methylpyrazol-5-yl)-3-octadecylurea]	20 to 50%
CCCCCCCCCC(=O)NC(=O)N(C)c1ccc(F)cc1 [Example 95, N-((4-fluorophenyl)(methyl)carbamoyl)decanamide]	> 50%
CCCCCCCCCC(=O)NC(=O)Nc1ccccc1C(F)(F)F [Example 96, N-(2-(trifluoromethyl)phenylcarbamoyl)decanamide]	< 20%
CCCCCCCCCC(=O)NC(=O)N[C@@H](C)c1ccccc1 [Example 97, (S)-N-(1-phenylethylcarbamoyl)decanamide]	20 to 50%
CCCCCCCCCC(=O)NC(=O)N[C@H](C)c1ccccc1 [Example 98, (R)-N-(1-phenylethylcarbamoyl)decanamide]	> 50%
CCCCCCCCCC(=O)NC(=O)Nc1ccnn1C [Example 99, N-(1-methylpyrazol-5-ylcarbamoyl)decanamide]	20 to 50%
CCCCCCCCCC(=O)NC(=O)Nc1cc(C)nn1C [Example 100, N-(1,3-dimethylpyrazol-5-ylcarbamoyl)decanamide]	20 to 50%
CCCCCCCCCC(=O)NC(=O)Nc1cc(C)ns1 [Example 101, N-(3-methylisothiazol-5-ylcarbamoyl)decanamide]	20 to 50%
CCCCCCCCCOCC(=O)N(C)c1ccc(F)cc1 [Example 102, N-(4-fluorophenyl)-N-methyl-2-(nonyloxy)acetamide]	20 to 50%
CCCCCCCCCOCC(=O)Nc1ccc(F)cc1C(F)(F)F [Example 103, N-(4-fluoro-2-(trifluoromethyl)phenyl)-2-(nonyloxy)acetamide]	20 to 50%
CCCCCCCCCOCC(=O)N[C@@H](C)c1ccccc1 [Example 104, (S)-2-(nonyloxy)-N-(1-phenylethyl)acetamide]	> 50%
CCCCCCCCCOCC(=O)Nc1ccnn1CC [Example 105, N-(1-ethylpyrazol-5-yl)-2-(nonyloxy)acetamide]	> 50%
CCCCCCCCCOCC(=O)Nc1cc(C2CC2)nn1C [Example 106, N-(3-cyclopropyl-1-methylpyrazol-5-yl)-2-(nonyloxy)acetamide]	> 50%
CCCCCCCCCOCC(=O)Nc1cc(C(C)(C)C)nn1C [Example 107, N-(3-tert-butyl-1-methylpyrazol-5-yl)-2-(nonyloxy)acetamide]	> 50%

Source: patent US20090192192A1, “INHIBITORS OF BIOFILM FORMATION OF GRAM-POSITIVE AND GRAM-NEGATIVE BACTERIA” (priority 2007, published 2009)
